The values below come from patent US20220363681A1, “OXO SIX-MEMBERED CYCLOPYRIMIDINE COMPOUND, PREPARATION METHOD AND MEDICAL USE THEREOF” (GenFleet Therapeutics (Shanghai) Inc., priority 2019, published 2022).

Structures are written as SMILES. Where only a bound is given, the exact number is not on record here.

The subject of experiment [1] is A549 cells (Kras G12S mutation). As to the kind of experiment: Cell proliferation inhibition experiment, 3D cell model, CellTiter-Glo (A549). The experiment is classed as cell-based, human. As to conditions: A549, 2% FBS F-12K, 384-well sphere plate, cultured 5 days with compound. The protocol: (§1) NCI-H358 was a human non-small cell lung cancer cell line with Kras G12C mutation, cultured in 10% FBS RPMI-1640 medium; A549 was a human lung adenocarcinoma cell line with Kras G12S mutation, cultured in 10% FBS F-12K medium. The cells in the logarithmic growth phase was taken, digested with trypsin EDTA, collected and counted, and H358 was adjusted to 1.8E4 cells/ml using 2% FBS RPMI-1640 medium, and A549 was adjusted to 8.9E3 cells/ml using 2% FBS F-12K medium; 800 (45 μl) H358 or 400 (45 μl) A549 cells were seeded in a 384-well sphere plate respectively, cultured overnight to establish a 3D cell model. DMSO was used to prepare 1000× compound 3.16-fold gradient concentration stock solution, and 2% FBS medium was used to dilute 100-fold to 10× compound stock solution. On the second day after cell seeding, 5 μl 10× compound stock solution was added to each cell culture well, the final concentration was 1×, and DMSO content was 0.1%. DMSO was used as the experimental control (control) and 2% FBS medium as the blank control (blank). After the compound and cells were added and cultured for 5 days, 25 μl CellTiter-Glo working solution was added to each well, mixed at 400 rpm and incubated for 30 minutes. After standing 30 minutes at room temperature, 40 μl of the mixture was transfered to a 384-well plate with a non-transparent white bottom, the luminescence chemiluminescence value was read, and the cells proliferation inhibition rate IR (%)=(RLU control-RLU compound)/(RLU control-RLU blank)×100% was calculated, Prism 6 four-parameter method was used to fit the compound's gradient dilution concentration and the corresponding cell proliferation inhibition rate, and the IC50 value was calculated.

The test system of experiment [2] is Kras G12C mutant NCI-H358 cells. As to the kind of experiment: Cell proliferation inhibition experiment, 3D cell model, CellTiter-Glo (H358). It is filed as cell-based, human. The following applies: NCI-H358, 2% FBS RPMI-1640, 384-well sphere plate, cultured 5 days with compound. The protocol:
as §1

What is called IC50 is the concentration needed to halve the response being measured. For `C=CC(=O)N1CCN(c2nc(OC[C@@H]3CCCN3C)nc3c(OC4CC4)c(-c4c(C)ccc5[nH]ncc45)c(Cl)cc23)CC1` (single isomer, unassigned) [Compound Z7B], the IC50 in experiment [1] is > 1 µM; in experiment [2], 0.006 µM.
For the compound `C=CC(=O)N1CCN(c2nc(OC3CCN(C)CC3)nc3c(OC4CC4)c(-c4c(C)ccc5[nH]ncc45)c(Cl)cc23)CC1` (single isomer, unassigned) [Compound Z12A], the IC50 in experiment [1] is > 1 µM; in experiment [2], 0.009 µM.
For `C=CC(=O)N1CCN(c2nc(OC3CCN(C)CC3)nc3c(OC4CC4)c(-c4c(C)ccc5[nH]ncc45)c(Cl)cc23)CC1` (single isomer, unassigned) [Compound Z12B], in that order: > 5 µM and 0.39 µM.
On to `C=CC(=O)N1CCN(c2nc(OC[C@@H]3CCCN3C)nc3c(OC4CC4)c(-c4c(C)ccc5[nH]ncc45)c(Cl)cc23)[C@@H](C)C1` (single isomer, unassigned) [Compound Z28B], for which the results for the IC50 in experiment [1] and in experiment [2] were > 1 µM and 0.004 µM, respectively.
For `C=CC(=O)N1CCN(c2nc(O[C@@H]3CCN(C)C3)nc3c(OC4CC4)c(-c4c(C)ccc5[nH]ncc45)c(Cl)cc23)CC1` (single isomer, unassigned) [Compound Z39B], in that order: > 30 µM and 0.012 µM.
For `C=CC(=O)N1CCN(c2nc(O[C@H]3CCN(C)C3)nc3c(OC4CC4)c(-c4c(C)ccc5[nH]ncc45)c(Cl)cc23)CC1` (single isomer, unassigned) [Compound Z40A], in that order: > 30 µM and 0.012 µM.
As for `C=CC(=O)N1CCN(c2nc(OC[C@@H]3CCCN3C)nc3c(OC4CC4)c(-c4c(C)ccc5[nH]ncc45)c(OC)cc23)[C@@H](C)C1` (single isomer, unassigned) [Compound Z48B], the IC50 in experiment [1] (Homo sapiens, A549, 120 h) is > 10 µM; in experiment [2] (Homo sapiens, NCI-H358, 120 h), 0.01 µM.
For `C=CC(=O)N1CCN(c2nc(OC[C@@H]3CCCN3C)nc3c(OC4CC4)c(-c4c(C)ccc5[nH]ncc45)c(OC)cc23)C[C@@H]1CC#N` (single isomer, unassigned) [Compound Z50A], in that order: > 10 µM and 0.05 µM.
For `C=CC(=O)N1CCN(c2nc(OC3CCN(C)CC3)nc3c(OC4CC(F)(F)C4)c(-c4c(C)ccc5[nH]ncc45)c(Cl)cc23)CC1` [Compound Z1, 1-(4-(6-chloro-8-(3,3-difluorocyclobutoxy)-7-(5-methyl-1H-indazol-4-yl)-2-((1-methylpiperidin-4-yl)oxy)quinazolin-4-yl)piperazin-1-yl)prop-2-en-1-one], in that order: > 1 µM and 0.108 µM.
For `C=CC(=O)N1CCN(c2nc(OC3CCN(C)CC3)nc3c(OC4CCOCC4)c(-c4c(C)ccc5[nH]ncc45)c(Cl)cc23)CC1` [Compound Z2, 1-(4-(6-chloro-7-(5-methyl-1H-indazol-4-yl)-2-((1-methylpiperidin-4-yl)oxy)-8-((tetrahydro-2H-pyran-4-yl)oxy)quinazolin-4-yl)piperazin-1-yl)prop-2-en-1-one], in that order: > 1 µM and 0.126 µM.
With `C=CC(=O)N1CCN(c2nc(OC3CCN(C)CC3)nc3c(OC4CCC4)c(-c4c(C)ccc5[nH]ncc45)c(Cl)cc23)CC1` [Compound Z3, 1-(4-(6-chloro-8-cyclobutoxy-7-(5-methyl-1H-indazol-4-yl)-2-((1-methylpiperidin-4-yl)oxy)quinazolin-4-yl)piperazin-1-yl)prop-2-en-1-one], the IC50 in experiment [1] (Homo sapiens, 120 h) was > 1 µM; in experiment [2] (Homo sapiens, 120 h) it was 0.06 µM.
On to `C=CC(=O)N1CCN(c2nc(OC[C@@H]3CCCN3C)nc3c(OC4CC(F)(F)C4)c(-c4c(C)ccc5[nH]ncc45)c(Cl)cc23)CC1` [Compound Z4, 1-(4-(6-chloro-8-(3,3-difluorocyclobutoxy)-7-(5-methyl-1H-indazol-4-yl)-2-(((S)-1-methylpyrrolidin-2-yl)methoxy)quinazolin-4-yl)piperazin-1-yl)prop-2-en-1-one], for which the 50% inhibitory concentration (IC50) was > 1 µM in experiment [1] (Homo sapiens, A549, 120 h) and 0.136 µM in experiment [2] (Homo sapiens, NCI-H358, 120 h).
As to `C=CC(=O)N1CCN(c2nc(OC[C@@H]3CCCN3C)nc3c(OC4CC(F)(F)C4)c(-c4c(C)ccc5[nH]ncc45)c(Cl)cc23)[C@@H](C)C1` [Compound Z5], the IC50 in experiment [1] (Homo sapiens, A549, 120 h) is > 10 µM; in experiment [2] (Homo sapiens, NCI-H358, 120 h), 0.311 µM.
Consider `C=CC(=O)N1CCN(c2nc(OC[C@@H]3CCCN3C)nc3c(OC4CC(F)(F)C4)c(-c4c(C)ccc5[nH]ncc45)c(Cl)cc23)C[C@@H]1CC#N` [Compound Z6, 2-((2S)-1-acryloyl-4-(6-chloro-8-(3,3-difluorocyclobutoxy)-7-(5-methyl-1H-indazol-4-yl)-2-(((S)-1-methylpyrrolidin-2-yl)methoxy)quinazolin-4-yl)piperazin-2-yl) acetonitrile], for which the 50% inhibitory concentration (IC50) in experiment [1] (Homo sapiens, A549, 120 h) was > 5 µM; in experiment [2] (Homo sapiens, NCI-H358, 120 h), 0.139 µM.
Regarding `C=CC(=O)N1CCN(c2nc(OC[C@@H]3CCCN3C)nc3c(OC4CC4)c(-c4c(C)ccc5[nH]ncc45)c(Cl)cc23)CC1` [Compound Z7, 1-(4-(6-chloro-8-cyclopropoxy-7-(5-methyl-1H-indazol-4-yl)-2-(((S)-1-methylpyrrolidin-2-yl)methoxy)quinazolinpyridin-4-yl)piperazin-1-yl)prop-2-en-1-one], the IC50 in experiment [1] (Homo sapiens, A549, 120 h) is > 1 µM; in experiment [2], 0.016 µM.
With `C=CC(=O)N1CCN(c2nc(OC[C@@H]3CCCN3C)nc3c(OC4CCC4)c(-c4c(C)ccc5[nH]ncc45)c(Cl)cc23)CC1` [Compound Z8, 1-(4-(6-chloro-8-cyclobutoxy-7-(5-methyl-1H-indazol-4-yl)-2-(((S)-1-methylpyrrolidin-2-yl)methoxy)quinazolinpyridin-4-yl)piperazin-1-yl)prop-2-en-1-one], the half-inhibitory concentration (IC50) in experiment [1] (Homo sapiens, A549, 120 h) was > 10 µM; in experiment [2] (Homo sapiens, NCI-H358, 120 h), 0.07 µM.
For `C=CC(=O)N1CCN(c2nc(OC[C@@H]3CCCN3C)nc3c(OC4CCOC4)c(-c4c(C)ccc5[nH]ncc45)c(Cl)cc23)CC1` (stereo partly drawn) [Compound Z10A, 1-(4-(6-chloro-7-(5-methyl-1H-indazol-4-yl)-2-(((S)-1-methylpyrrolidin-2-yl)methoxy)-8-((tetrahydrofuran-3-yl)oxy)quinazolin-4-yl)piperazin-1-yl)prop-2-en-1-one], in that order: > 10 µM and 0.257 µM.
For `C=CC(=O)N1CCN(c2nc(OC3CCN(C)CC3)nc3c(OC4CC4)c(-c4c(C)ccc5[nH]ncc45)c(Cl)cc23)CC1` [Compound Z12, 1-(4-(6-chloro-8-cyclopropoxy-7-(5-methyl-1H-indazol-4-yl)-2-((1-methylpiperidin-4-yl)oxy)quinazolin-4-yl)piperazin-1-yl)prop-2-en-1-one], the half-inhibitory concentration (IC50) is > 10 µM in experiment [1] and 0.018 µM in experiment [2].
Take `C=CC(=O)N1CCN(c2nc(OC[C@@H]3CCCN3C)nc3c(OC4CC4)c(-c4c(O)cccc4F)c(Cl)cc23)CC1` [Compound Z13]: the 50% inhibitory concentration (IC50) is > 1 µM in experiment [1] (Homo sapiens, A549, 120 h) and 0.336 µM in experiment [2] (Homo sapiens, NCI-H358, 120 h).
For `C=CC(=O)N1CCN(c2nc(OC[C@@H]3CCCN3C)nc3c(OC4CC4)c(-c4c(C)ccc5[nH]ncc45)c(Cl)cc23)[C@H](C)C1` [Compound Z27, 1-((3R)-4-(6-chloro-8-cyclopropoxy-7-(5-methyl-1H-indazol-4-yl)-2-(((S)-1-methylpyrrolidin-2-yl)methoxy)quinazolin-4-yl)-3-methylpiperazin-1-yl)prop-2-en-1-one], in that order: > 1 µM and 0.324 µM.
